Data as given in PubChem BioAssay (NCI).
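In this assay, cells in 96-well plates receive the compound at five concentrations for 48 hours. Endpoints are linearly interpolated between the surrounding concentrations. TGI marks complete inhibition of growth.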

Experiments:
Test in all cases: inhibition of tumour cell growth, NCI panel, 48 h
[1] = system: 786-0 renal
[2] = system: A498 renal
[3] = system: A549 NSCLC
[4] = system: ACHN renal
[5] = system: BT-549 breast
[6] = system: CAKI-1 renal
[7] = system: CCRF-CEM leukemia
[8] = system: COLO 205 colon
[9] = system: DU-145 prostate
[10] = system: EKVX NSCLC
[11] = system: HCC-2998 colon
[12] = system: HCT-116 colon
[13] = system: HCT-15 colon
[14] = system: HL-60(TB) leukemia
[15] = system: HOP-62 NSCLC
[16] = system: HOP-92 NSCLC
[17] = system: HS 578T breast
[18] = system: HT29 colon
[19] = system: IGROV1 ovarian
[20] = system: K-562 leukemia
[21] = system: KM12 colon
[22] = system: LOX IMVI melanoma
[23] = system: M14 melanoma
[24] = system: MALME-3M melanoma
[25] = system: MCF7 breast
[26] = system: MDA-MB-231 breast
[27] = system: MDA-MB-435
[28] = system: MDA-N
[29] = system: MOLT-4 leukemia
[30] = system: NCI-H226 lung
[31] = system: NCI-H23 lung
[32] = system: NCI-H460 lung
[33] = system: NCI-H522 lung
[34] = system: NCI/ADR-RES ovarian
[35] = system: OVCAR-3 ovarian
[36] = system: OVCAR-4 ovarian
[37] = system: OVCAR-5 ovarian
[38] = system: OVCAR-8 ovarian
[39] = system: PC-3 prostate
[40] = system: RPMI-8226 leukemia
[41] = system: RXF 393 renal
[42] = system: SF-268 CNS
[43] = system: SF-295 CNS
[44] = system: SK-MEL-2 melanoma
[45] = system: SK-MEL-28 melanoma
[46] = system: SK-MEL-5 melanoma
[47] = system: SK-OV-3 ovarian
[48] = system: SN12C renal
[49] = system: SNB-19 CNS
[50] = system: SNB-75 CNS
[51] = system: SR leukemia
[52] = system: SW-620 colon
[53] = system: T-47D breast
[54] = system: TK-10 renal
[55] = system: U251 CNS
[56] = system: UACC-257 melanoma
[57] = system: UACC-62 melanoma
[58] = system: UO-31 renal

With `CC/C=C/C[C@H](O[Si](C)(C)C(C)(C)C)[C@H]1C[C@H]2O[C@H]([C@@H](O)C#C[Si](C)(C)C)C[C@H]2O1` the TGI [1] was 28 µM, the TGI [2] was 32.8 µM and the TGI [3] was 21.8 µM. It also gave a TGI [4] of 29 µM, a TGI [5] of 33.4 µM and a TGI [6] of 24.2 µM. The TGI [7] was over 100 µM, the TGI [8] was 28.2 µM and the TGI [9] was 28.3 µM. The TGI [10] was 25.9 µM, the TGI [11] was 35.1 µM and the TGI [12] was 24.5 µM. It also gave a TGI [13] of 26.6 µM, a TGI [14] of over 100 µM and a TGI [15] of 30.4 µM. For the same molecule, the TGI [16] was 22.4 µM, the TGI [17] was 32.4 µM and the TGI [18] was 24.4 µM. For the same molecule, the TGI [19] was 27.5 µM, the TGI [20] was over 44.3 µM and the TGI [21] was 39.2 µM. It also gave a TGI [22] of 22.1 µM, a TGI [23] of 24.7 µM and a TGI [24] of 24.8 µM. For the same molecule, the TGI [25] was 20.9 µM, the TGI [26] was 30.2 µM and the TGI [27] was 25.3 µM. For the same molecule, the TGI [28] was 24.8 µM, the TGI [29] was over 48.6 µM and the TGI [30] was 20.6 µM. It also gave a TGI [31] of 24.7 µM, a TGI [32] of 36 µM and a TGI [33] of 11.9 µM. It also gave a TGI [34] of 26.3 µM, a TGI [35] of 30.2 µM and a TGI [36] of 23.1 µM. It also gave a TGI [37] of 27.3 µM, a TGI [38] of 27.9 µM and a TGI [39] of 26.2 µM. The TGI [40] was 37.6 µM, the TGI [41] was 20.4 µM and the TGI [42] was 27.4 µM. For the same molecule, the TGI [43] was 27.5 µM, the TGI [44] was 31.3 µM and the TGI [45] was 29.7 µM. For the same molecule, the TGI [46] was 20 µM, the TGI [47] was 28.9 µM and the TGI [48] was 17.2 µM. For the same molecule, the TGI [49] was 26.9 µM, the TGI [50] was 31 µM and the TGI [51] was 7.66 µM. For the same molecule, the TGI [52] was 37.7 µM, the TGI [53] was 23.2 µM and the TGI [54] was 30 µM. The TGI [55] was 30.2 µM, the TGI [56] was 23.2 µM and the TGI [57] was 34.1 µM. It also gave a TGI [58] of 27.6 µM.
